Laboratory results taken from the NIST ThermoML archive (doi:10.1016/j.fluid.2014.03.004).

Conditions: 101.33 kPa, Liquid; for mass density: Vibrating tube method; for electrical conductivity: Alternating current cell with electrodes; for viscosity: Falling or rolling sphere viscometry

CCCCC[n+]1ccn(CCCC)c1.O=S(=O)([N-]S(=O)(=O)C(F)(F)F)C(F)(F)F
Conditions | electrical conductivity [S/m] | mass density [kg/m3] | viscosity [mPa·s]
293.15 K | – | 1322.07 | –
298.15 K | 0.164 | 1317.6 | 75.9
303.15 K | – | 1313.16 | 61.5
303.16 K | 0.205 | – | –
313.15 K | 0.303 | 1304.29 | 40.3
323.15 K | 0.427 | 1295.48 | 28
333.15 K | 0.58 | 1286.72 | 20.2
343.15 K | 0.757 | 1278.02 | –
353.15 K | – | 1269.36 | 11.6
353.16 K | 0.96 | – | –

CCCCn1cc[n+](CCC(C)C)c1.O=S(=O)([N-]S(=O)(=O)C(F)(F)F)C(F)(F)F
Conditions | electrical conductivity [S/m] | mass density [kg/m3] | viscosity [mPa·s]
293.15 K | – | 1322.37 | –
298.15 K | 0.145 | 1318.1 | 93
303.15 K | – | 1313.65 | 73.2
303.16 K | 0.182 | – | –
313.15 K | 0.273 | 1304.82 | 46.5
323.15 K | 0.389 | 1296.03 | 31.5
333.15 K | 0.529 | 1287.3 | 22.4
343.15 K | 0.694 | 1278.62 | –
353.15 K | – | 1269.99 | 12.6
353.16 K | 0.883 | – | –

CCCC[n+]1ccn(C2CCCC2)c1.O=S(=O)([N-]S(=O)(=O)C(F)(F)F)C(F)(F)F
Conditions | electrical conductivity [S/m] | mass density [kg/m3] | viscosity [mPa·s]
293.15 K | – | 1383.1 | –
298.15 K | 0.197 | 1378.52 | 85.1
303.15 K | – | 1373.96 | 67.9
303.16 K | 0.246 | – | –
313.15 K | 0.361 | 1364.86 | 44.3
323.15 K | 0.504 | 1355.84 | 30.8
333.15 K | 0.668 | 1346.87 | 22.3
343.15 K | 0.878 | 1337.96 | 16.7
353.15 K | 1.11 | 1329.11 | 13
